# Earlier results as cited in patent US20150108064A1, “Production Of Channel Type Cyclodextrin Crystals” (Amphidex A/S, priority 2012, published 2015).
# Settings: not given
row,Solubility in H2O [g/100 g],Compound
1,0.005,C1CCCCC1 [Cyclohexane]
2,8.700,CCOC(C)=O [Ethyl acetate]
3,0.001,CCCCCC [Hexane]

row,Compound,Solubility in H2O [g/100 g]
1,CCCCC [Pentane],0.004

# Settings: maximum safe concentration in the air, worker exposed daily
row,Compound,TLV [ppm]
1,CCCO [1-propanol],200
2,CC(C)=O [Acetone],500
3,ClC(Cl)Cl [Chloroform],10
4,C1CCCCC1 [Cyclohexane],300
5,CCO [Ethanol],1000
6,CCOC(C)=O [Ethyl acetate],400
7,CCCCCCC [Heptane],400
8,CCCCCC [Hexane],50
9,"C1CCOC1 [THF, Tetrahydrofuran]",200
